Assay results as given in PubChem BioAssay AID256 (DTP/NCI, 2004).
Toxic doses and inconclusive results are not listed. The calls were made as follows: active = survival T/C of 150% or more; inactive = T/C below 125% in these data.

Tested on: CD2F1 mice, L1210 leukemia ip, survival T/C
Assay: NCI In Vivo Anticancer Drug Screen. Data for tumor model L1210 Leukemia (intraperitoneal) in CD2F1 (CDF1) mice
Details: higher = longer survival
Summary of the method: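 Mice carrying a transplanted tumor received test compound or vehicle alone. The value is the measurement in the treated group divided by that in the vehicle-treated control group.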

[1] = endpoint: mean survival time, dose: 50.0 mg/kg/injection, schedule: Q01DX009 (ip), vehicle: saline with Tween-80
[2] = endpoint: mean survival time, dose: 100.0 mg/kg/injection, schedule: Q01DX009 (ip), vehicle: saline with Tween-80
[3] = endpoint: mean survival time, dose: 200.0 mg/kg/injection, schedule: Q01DX009 (ip), vehicle: saline with Tween-80
[4] = endpoint: mean survival time, dose: 100.0 mg/kg/injection, schedule: Q04DX003 (ip), vehicle: saline with Tween-80
[5] = endpoint: mean survival time, dose: 400.0 mg/kg/injection, schedule: Q01DX009 (ip), vehicle: saline with Tween-80
[6] = endpoint: mean survival time, dose: 100.0 mg/kg/injection, schedule: Q01DX001 (ip), vehicle: saline
[7] = endpoint: mean survival time, dose: 200.0 mg/kg/injection, schedule: Q01DX001 (ip), vehicle: saline
[8] = endpoint: mean survival time, dose: 200.0 mg/kg/injection, schedule: Q04DX003 (ip), vehicle: saline with Tween-80
[9] = endpoint: mean survival time, dose: 400.0 mg/kg/injection, schedule: Q04DX003 (ip), vehicle: saline with Tween-80
[10] = endpoint: mean survival time, dose: 100.0 mg/kg/injection, schedule: Q01DX001 (ip), vehicle: saline with Tween-80
[11] = endpoint: mean survival time, dose: 200.0 mg/kg/injection, schedule: Q01DX001 (ip), vehicle: saline with Tween-80
[12] = endpoint: mean survival time, dose: 400.0 mg/kg/injection, schedule: Q01DX001 (ip), vehicle: saline with Tween-80
[13] = endpoint: mean survival time, dose: 100.0 mg/kg/injection, schedule: Q04DX003 (ip), vehicle: saline
[14] = endpoint: mean survival time, dose: 200.0 mg/kg/injection, schedule: Q04DX003 (ip), vehicle: saline

Measured: T/C

CCOC(=O)C1C(=O)NCC1c1ccccc1 (centres undefined)
inactive: [1] 106 % of control | [2] 101 % of control | [3] 101 % of control

CC(=O)N(C(C)=O)c1nc(Br)c2ccccc2c1-c1ccc([N+](=O)[O-])cc1
inactive: endpoint: mean survival time, dose: 50.0 mg/kg/injection, schedule: Q04DX003 (ip), vehicle: other 100 % of control | endpoint: mean survival time, dose: 100.0 mg/kg/injection, schedule: Q04DX003 (ip), vehicle: other 94 % of control | endpoint: mean survival time, dose: 200.0 mg/kg/injection, schedule: Q04DX003 (ip), vehicle: other 94 % of control | endpoint: mean survival time, dose: 400.0 mg/kg/injection, schedule: Q04DX003 (ip), vehicle: other 88 % of control

COc1cc2nncc(Sc3cnnc4ccccc34)c2cc1OC
inactive: endpoint: mean survival time, dose: 100.0 mg/kg/injection, schedule: Q01DX001 (ip), vehicle: other 92 % of control | endpoint: mean survival time, dose: 200.0 mg/kg/injection, schedule: Q01DX001 (ip), vehicle: other 86 % of control | endpoint: mean survival time, dose: 400.0 mg/kg/injection, schedule: Q01DX001 (ip), vehicle: other 92 % of control

O=S1Cc2ccccc2C1
inactive: [4] 98 % of control

C/C(=N\NC(N)=S)c1ccc2cc3c(cc2c1)OCO3
inactive: endpoint: mean survival time, dose: 75.0 mg/kg/injection, schedule: Q01DX001 (ip), vehicle: saline 119 % of control

NC1=NC2OC(CO)C(O)C2O1 (centres undefined)
inactive: [2] 105 % of control | [3] 100 % of control | [5] 102 % of control | endpoint: median survival time, dose: 100.0 mg/kg/injection, schedule: Q04DX003 (ip), vehicle: saline with Tween-80 100 % of control | endpoint: median survival time, dose: 200.0 mg/kg/injection, schedule: Q04DX003 (ip), vehicle: saline with Tween-80 100 % of control | endpoint: median survival time, dose: 400.0 mg/kg/injection, schedule: Q04DX003 (ip), vehicle: saline with Tween-80 100 % of control

CCS(=O)(=O)C(CCC#N)(CCC#N)S(=O)(=O)CC
inactive: [6] 95 % of control | [7] 103 % of control

NC(=S)c1cccc(OCCOc2cccc3ccccc23)c1
inactive: endpoint: mean survival time, dose: 25.0 mg/kg/injection, schedule: Q01DX009 (ip), vehicle: saline with Tween-80 92 % of control | [1] 95 % of control | [2] 88 % of control

COc1ccc(C(=O)O)c([N+](=O)[O-])c1
inactive: [4] 98 % of control | [8] 98 % of control | [9] 98 % of control

CC1CC(C)(C)N=C(CC(=O)N2Cc3cc4ccccc4nc3C2)O1 (centres undefined)
inactive: [10] 96 % of control | [11] 104 % of control | [12] 96 % of control

C=C1C(=O)OC2/C=C(\C)C3OC3/C=C(/C(=O)OC)C(O)C(OC(=O)C3(C)OC3C)C12 (centres undefined)
inactive: [10] 104 % of control

CCOC(=O)Nc1cc(C(F)(F)F)cc(C(F)(F)F)c1
inactive: [2] 94 % of control | [3] 94 % of control | [5] 96 % of control

CN(C)C(=S)NCc1ccccc1
inactive: [4] 105 % of control | [8] 109 % of control | [9] 87 % of control

CC12CCCC=C1N(C=O)c1ccccc12 (centres undefined)
inactive: [6] 95 % of control | [7] 100 % of control | endpoint: mean survival time, dose: 400.0 mg/kg/injection, schedule: Q01DX001 (ip), vehicle: saline 95 % of control

CCN(CC)CCNc1cc2c3ccccc3ccc2c2ccccc12
inactive: [10] 88 % of control | [11] 95 % of control | [12] 100 % of control

CCC1C(=O)OCc2c1cc1n(c2=O)Cc2cc3ccccc3nc2-1 (centres undefined)
inactive: endpoint: mean survival time, dose: 7.39 mg/kg/injection, schedule: Q01DX001 (ip), vehicle: saline 101 % of control | endpoint: mean survival time, dose: 11.1 mg/kg/injection, schedule: Q01DX001 (ip), vehicle: saline 101 % of control | endpoint: mean survival time, dose: 16.6 mg/kg/injection, schedule: Q01DX001 (ip), vehicle: saline 100 % of control | endpoint: mean survival time, dose: 25.0 mg/kg/injection, schedule: Q01DX001 (ip), vehicle: saline 111 % of control

CCCCC(C(=O)OCC)C(=O)c1ccccc1 (centres undefined)
inactive: [4] 96 % of control | [8] 94 % of control | [9] 97 % of control

CC1(O)Nc2nc3nc[nH]c3c(=O)n2C1O (centres undefined)
inactive: endpoint: mean survival time, dose: 12.5 mg/kg/injection, schedule: Q01DX005 (ip), vehicle: water 94 % of control | endpoint: mean survival time, dose: 25.0 mg/kg/injection, schedule: Q01DX005 (ip), vehicle: water 90 % of control | endpoint: mean survival time, dose: 50.0 mg/kg/injection, schedule: Q01DX005 (ip), vehicle: water 100 % of control | endpoint: mean survival time, dose: 100.0 mg/kg/injection, schedule: Q01DX005 (ip), vehicle: water 94 % of control | endpoint: mean survival time, dose: 200.0 mg/kg/injection, schedule: Q01DX005 (ip), vehicle: water 93 % of control

CCCCNC(C)(C)C(SS)c1ccc(Cl)cc1 (centres undefined)
inactive: [13] 94 % of control | [14] 105 % of control

CCOC(CS(=O)(=O)CC(N)=O)OCC
inactive: [4] 98 % of control | [8] 93 % of control | [9] 104 % of control

O=C(O)c1ccc([N+](=O)[O-])cc1Br
inactive: endpoint: mean survival time, dose: 100.0 mg/kg/injection, schedule: Q04DX002 (ip), vehicle: saline with Tween-80 96 % of control | endpoint: mean survival time, dose: 200.0 mg/kg/injection, schedule: Q04DX002 (ip), vehicle: saline with Tween-80 107 % of control | endpoint: mean survival time, dose: 400.0 mg/kg/injection, schedule: Q04DX002 (ip), vehicle: saline with Tween-80 100 % of control

Cc1cn(C2CC(OP(=O)(O)OCC3OC(n4ccc(N)nc4=O)C(O)C3O)C(CO)O2)c(=O)[nH]c1=O (centres undefined)
inactive: endpoint: median survival time, dose: 5.0 mg/kg/injection, schedule: Q01DX005 (ip), vehicle: saline 107 % of control | endpoint: median survival time, dose: 10.0 mg/kg/injection, schedule: Q01DX005 (ip), vehicle: saline 117 % of control | endpoint: median survival time, dose: 25.0 mg/kg/injection, schedule: Q01DX005 (ip), vehicle: saline 122 % of control

COC(=O)C(Cc1ccc(O)cc1)NC(=O)C(C)NC(=O)OCc1ccccc1 (centres undefined)
inactive: [2] 92 % of control | [3] 93 % of control | [5] 88 % of control

CCCCNC1=C(C)C(=O)C2=C(C1=O)C(COC(N)=O)C1(OC)C3NC3CN21 (centres undefined)
inactive: endpoint: mean survival time, dose: 6.3 mg/kg/injection, schedule: Q01DX001 (ip), vehicle: carboxymethylcellulose (CMC) 102 % of control | endpoint: mean survival time, dose: 9.5 mg/kg/injection, schedule: Q01DX001 (ip), vehicle: carboxymethylcellulose (CMC) 118 % of control | endpoint: mean survival time, dose: 14.25 mg/kg/injection, schedule: Q01DX001 (ip), vehicle: carboxymethylcellulose (CMC) 102 % of control

Nc1ccc(N=Nc2ccccc2)c(N)c1
inactive: [13] 97 % of control | [14] 90 % of control | endpoint: mean survival time, dose: 400.0 mg/kg/injection, schedule: Q04DX003 (ip), vehicle: saline 100 % of control

CNC[C@@H](O)c1ccc(O)c(O)c1
inactive: endpoint: mean survival time, dose: 1.0 mg/kg/injection, schedule: Q01DX001 (ip), vehicle: saline 97 % of control | endpoint: mean survival time, dose: 2.0 mg/kg/injection, schedule: Q01DX001 (ip), vehicle: saline 100 % of control | endpoint: mean survival time, dose: 2.5 mg/kg/injection, schedule: Q01DX009 (ip), vehicle: saline 104 % of control | endpoint: mean survival time, dose: 4.0 mg/kg/injection, schedule: Q01DX001 (ip), vehicle: saline 107 % of control | endpoint: mean survival time, dose: 5.0 mg/kg/injection, schedule: Q01DX009 (ip), vehicle: saline 104 % of control | endpoint: mean survival time, dose: 8.0 mg/kg/injection, schedule: Q01DX001 (ip), vehicle: saline 103 % of control

COC(=O)CC(NC(=O)C(CSC(c1ccccc1)(c1ccccc1)c1ccccc1)NC(c1ccccc1)(c1ccccc1)c1ccccc1)C(=O)OC (centres undefined)
inactive: endpoint: mean survival time, dose: 50.0 mg/kg/injection, schedule: Q01DX009 (ip), vehicle: saline 95 % of control | endpoint: mean survival time, dose: 100.0 mg/kg/injection, schedule: Q01DX009 (ip), vehicle: saline 92 % of control | endpoint: mean survival time, dose: 200.0 mg/kg/injection, schedule: Q01DX009 (ip), vehicle: saline 89 % of control | endpoint: mean survival time, dose: 400.0 mg/kg/injection, schedule: Q01DX009 (ip), vehicle: saline 91 % of control

N=C(N)Cc1ccc(NC(=O)c2ccc(C(=O)Nc3ccc(CC(=N)N)cc3)cc2)cc1
inactive: endpoint: mean survival time, dose: 7.2 mg/kg/injection, schedule: Q01DX009 (ip), vehicle: acetone 102 % of control | endpoint: mean survival time, dose: 10.8 mg/kg/injection, schedule: Q01DX009 (ip), vehicle: acetone 121 % of control

CCCCCCC(C)=O
inactive: [4] 98 % of control | [8] 96 % of control | [9] 91 % of control
